Values of other authors, collected in patent publication US6790965B1, “Combinatorial dihydrobenzopyran library” (Pharmacopeia Drug Discovery, Inc., priority 1994, dated 2004).
pKi: −log10 of the molar value.

Target: bovine carbonic anhydrase (Bos taurus, UniProt P00921)
Conditions: relatively weak inhibitor, displaced by increased dansylamide concentration

Chain of bovine carbonic anhydrase (P00921 whole entry): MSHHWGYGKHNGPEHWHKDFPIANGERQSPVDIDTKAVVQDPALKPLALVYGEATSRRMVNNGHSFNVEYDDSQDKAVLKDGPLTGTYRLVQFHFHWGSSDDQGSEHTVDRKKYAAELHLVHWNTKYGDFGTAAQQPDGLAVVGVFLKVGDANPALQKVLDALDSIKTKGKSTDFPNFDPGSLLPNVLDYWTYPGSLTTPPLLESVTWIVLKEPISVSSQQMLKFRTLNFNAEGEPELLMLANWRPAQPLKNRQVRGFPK

pKi: ~7.12
SMILES: NS(=O)(=O)c1cc2c(cc1Cl)N=CNS2(=O)=O [chlorothiazide]
